{"source": "patent US9512385B2", "about": "“Disinfectant solution for nonionic soft contact lenses” (MENICON CO., LTD., priority 2012, dated 2016)", "origin": "cited, not measured here", "conditions": "background art statement"}
{"substance": "polylysine", "values": [{"measurement": "IC50 value in cytotoxicity test relative to PHMB", "result": "about several hundredth part of that of PHMB"}]}
